Patent publication US11351145B2, “Quercetin-based composition for treating rhinosinusitis” (APHABIO THERAPEUTICS, priority 2017, dated 2022)
Marks after values point to notes of the source that are not given here.

What was measured:
Type in all cases: in vivo, rabbit
[1] = system: rhinosinusitis induced by lipopolysaccharide (LPS); test: Goblet cell morphometric study (alcian blue staining) in rabbits with LPS-induced rhinosinusitis; conditions: for Number of alcian positive cells on 1 mm of epithelium / Number of goblet cells on 1 mm of epithelium / Ratio of alcian positive cells to total number of goblet cells, in %: rabbits, 2 mL intranasally in each nasal cavity once daily for seven days, M ± s.e.m., n = 6
Description: (§1) 42 male rabbits were used in this study. Animals were separated into seven groups, each containing six rabbits. The 1st group served as an untreated control, the second group was treated with a 0.9% NaCl solution, and five experimental groups were used to test the different formulations: onion peel extract, quercetin+2-(3,4-dihydroxybenzoyl)-2,4,6-trihydroxy-3(2H)-benzofuranone quercetin, quercetin-4′-glycoside and protocatechuic acid.
(§2) Rhinosinusitis was induced by introduction of 100 μL of 1% lipopoysaccharide (LPS) in each nasal cavity of the rabbits for three days (Dong-Hyun Kim et all, 2011).
(§3) The following concentrations of composition were tested:
(§4) onion peel water extract—1 mg/mL;
(§5) the mixture of quercetin—0.009 mg/mL and 2-(3,4-dihydroxybenzoyl)-2,4,6-trihydroxy-3(2H)-benzofuranone—0.001 mg/mL;
(§6) quercetin-4′-glycoside—0.25 mg/mL;
(§7) protocatechuic acid—0.25 mg/mL.
(§8) The compounds were diluted in solutions of 0.9-1% sodium chloride or in the solution containing 0.75% NaCl+0.25% NaHCO3 heated to 37° C. before administration. Except for the mixture of quercetin+2-(3,4-dihydroxybenzoyl)-2,4,6-trihydroxy-3(2H)-benzofuranone, which was suspension, all formulations were slightly opalescent-colored solutions.
(§9) 2 mL of the solutions was administered intranasally in each nasal cavity once daily for seven days. In order to get the maximal contact of nasal cavity with the tested substances, rabbits were kept in the “head down” position during administration.
(§10) The day after the last administration of the substances, animals were sacrificed by an overdose of a general anesthetics: Zoletil (Virbac, France) and Rometar (Bioveta, Czech Republic).
(§11) After macroscopic examinations, the nasal parts of rabbits' heads were fixed in 10% formaldehyde for 24 hours, then decalcified for 14 days in a hydrochloric acid/water (25:1) solution. Then, the noses of the animals were sectioned transversally at four levels: A—at the incisors; B— in a zone posterior to the incisors, C— at the second palatal ridge, and D—at the first premolar tooth. Tissues were then washed with water for 12 hours and embedded in paraffin using conventional methods. Histological sections of 3-5 μm were prepared from these tissues using microtome. In order to examine goblet cells and their glucosamine content, the tissue sections were stained with alcian blue at pH 2.5. Some tissue sections were re-stained with haematoxylin and eosin for further histological examinations.
(§12) Morphological investigation of histological preparations was performed using optical microscope CarlZeissAxioScopeA1 (Germany) at magnifications of 25×, 50×, 100×, 200× and 400×. Microphotographs of samples were taken using a digital camera AxioCamlCc 1 and AxioVisionRel.4.8 software (Germany). Morphometric measurements were taken using AxioVisionRel.4.8 software (Germany).
Goblet cells were counted within 1 mm of the respiratory zone of the epithelium.
All data were analyzed using descriptive statistics. The normality of data distribution was verified by Shapiro-Wilks test. In the case of normality, the mean and the standard error of the mean (s.e.m) were calculated and presented in tables together with n (number of values). […] The differences between groups were analyzed using parametric or non-parametric tests depending on the distribution type. The analysis of normally distributed data was done using the unifactorial dispersion analysis test (ANOVA), and further post-hoc analysis was done using Tukey's method. The data not corresponding to the normal distribution were analyzed using the non-parametric Kruskal-Wallis test, and the differences between groups were analyzed using the Mann-Whitney test. The difference was determined at a significance level of 0.05.

[2] = system: rhinosinusitis induced by lipopolysaccharide (LPS); test: Histological scoring of sino-nasal inflammation (score 0-3) in rabbits with LPS-induced rhinosinusitis; conditions: for Overall therapeutic effect / activity against rhinosinusitis: conclusion of the histological examination, compared to non-treated or placebo-treated animals; for Epithelial desquamation / Mucous gland damage: score 0-3 (0 absence of damage, 1 slightly, 2 moderately, 3 strongly damaged); for Epithelial desquamation / Mucous gland damage / Leukocyte infiltrate of mucous membrane / Mononuclear infiltrate of mucous membrane: median (1st; 3rd quartile), n = 6; for Epithelial desquamation / Mucous gland damage / Leukocyte infiltrate of mucous membrane / Mononuclear infiltrate of mucous membrane / Inflammation degree in different zones: Olfactory region / Inflammation degree in different zones: Respiratory region / Inflammation degree in different zones: Vestibule / Inflammation type: Post-inflammatory hyperplasia of goblet cells / Inflammation type: acute catarrhal rhinosinusitis / Inflammation type: acute purulent rhinosinusitis: intranasal once daily for seven days; for Leukocyte infiltrate of mucous membrane / Mononuclear infiltrate of mucous membrane: score 0-3 (0 none, 1: 1 to 5, 2: 6 to 10, 3: more than 10 cells in the zone); for Inflammation degree in different zones: Olfactory region / Inflammation degree in different zones: Respiratory region / Inflammation degree in different zones: Vestibule / Inflammation type: Post-inflammatory hyperplasia of goblet cells / Inflammation type: acute catarrhal rhinosinusitis / Inflammation type: acute purulent rhinosinusitis: scoring from 0 to 3, median (quartiles)
Description: as §1, §2, §3, §4, §5, §6, §7, §8, §9, §10, §11, §12
The appearance, severity of acute catarrhal rhinosinusitis, acute purulent rhinosinusitis and occurrence of post-inflammatory hyperplasia of goblet cells were evaluated by examining the degree of inflammatory lesions in various zones: vestibule, respiratory region, olfactory region and paranasal sinuses.
The degree of epithelial desquamation and mucociliary gland damage was scored along a scale from 0 to 3, where:
The degree of mononuclear and leukocyte cell infiltration was evaluated by scoring from 0 to 3, where:
0—no mononuclear cells present in the zone of examination;
1—1 to 5 mononuclear cells present in the zone of examination;
2—6 to 10 mononuclear cells present in the zone of examination;
3—more than 10 mononuclear cells present in the zone of examination.
All data were analyzed using descriptive statistics. The normality of data distribution was verified by Shapiro-Wilks test. In the case of normality, the mean and the standard error of the mean (s.e.m) were calculated and presented in tables together with n (number of values). […] The differences between groups were analyzed using parametric or non-parametric tests depending on the distribution type. […]

[3] = system: rhinosinusitis induced by lipopolysaccharide (LPS); test: Visual (macroscopic) examination of rabbits with LPS-induced rhinosinusitis; conditions: in words; after seven days of treatment
Description: as §1, §2, §8, §9
The nasal cavities of the animals were subjected to visual examinations immediately after euthanasia.

O=C(O)c1ccc(O)c(O)c1 [Protocatechuic acid, protocatechuic acid] was tested, and the “Number of alcian positive cells on 1 mm of epithelium” value (“Number of alcian positive cells” for short) [1] was 16.3 ± 5.82, the “Number of goblet cells on 1 mm of epithelium” value [1] was 44.0 ± 6.76 and the “Ratio of alcian positive cells to total number of goblet cells, in %” value (“Ratio of alcian positive cells … in %” below) [1] was 35.0 ± 9.01%. For the same compound, the “Leucocyte cell infiltration of the mucous membranes versus control group” value ([2]; in words, Kruskal-Wallis and Mann-Whitney tests) was “lower than in control group”, the “Overall therapeutic effect / activity against rhinosinusitis” value ([2]; in words) was “moderate activity” and the Epithelial desquamation [2] was 0.0(0.0; 1.0) score. The Mucous gland damage [2] was 1.0(0.0; 1.0) score, the “Leukocyte infiltrate of mucous membrane” value [2] was 0.5(0.0; 1.0)* score and the “Mononuclear infiltrate of mucous membrane” value (shortened to “Mononuclear infiltrate”) [2] was 1.0 (1.0; 1.0) score. The “Inflammation degree in different zones: Olfactory region” value [2] was 1.0, the “Inflammation degree in different zones: Respiratory region” value [2] was 1.0 and the “Inflammation degree in different zones: Vestibule” value [2] was 0.0. The “Inflammation type: Post-inflammatory hyperplasia of goblet cells” value (from here on “Inflammation type … of goblet cells”) [2] was 0.5, the “Inflammation type: acute catarrhal rhinosinusitis” value [2] was 1.0 and the “Inflammation type: acute purulent rhinosinusitis” value [2] was 0.0. The “Macroscopic (visual) examination findings” value (from here on “Macroscopic”) [3] was “No external changes were observed”.
In the case of O=c1c(O)c(-c2ccc(O)c(O)c2)oc2cc(O)cc(O)c12 [Quercetin, quercetin], the “Number of alcian positive cells” value [1] was 21.3 ± 6.49, the “Number of goblet cells on 1 mm of epithelium” value [1] was 43.0 ± 6.46 and the “Ratio of alcian positive cells … in %” value [1] was 47.2 ± 12.33%. The “Acute purulent rhinosinusitis (observation)” value ([2]; in words) was “no sign”, the “Post-inflammatory hyperplasia of the goblet cells (observation)” value ([2]; in words) was “no sign” and the Epithelial desquamation [2] was 0.5(0.0; 1.0) score. The Mucous gland damage [2] was 0.5(0.0; 2.0) score, the “Leukocyte infiltrate of mucous membrane” value [2] was 2.0(2.0; 2.0) score and the “Mononuclear infiltrate” value [2] was 1.0 (1.0; 1.0) score. For the same compound, the “Inflammation degree in different zones: Olfactory region” value [2] was 1.0, the “Inflammation degree in different zones: Respiratory region” value [2] was 2.0 and the “Inflammation degree in different zones: Vestibule” value [2] was 0.0. For the same compound, the “Inflammation type … of goblet cells” value [2] was 0.0, the “Inflammation type: acute catarrhal rhinosinusitis” value [2] was 2.0 and the “Inflammation type: acute purulent rhinosinusitis” value [2] was 0.0. The “Macroscopic” value [3] was “No external changes were observed”.
O=c1c(O)c(-c2ccc(O[C@@H]3O[C@H](CO)[C@@H](O)[C@H](O)[C@H]3O)c(O)c2)oc2cc(O)cc(O)c12 [Quercetin-4′-glycoside, quercetin-4′-glycoside] was tested, and the “Change in the number of goblet cells on 1 mm of epithelium compared to control” value ([1]; in words, ANOVA and Tukey's test) was “Increase”, the “Number of alcian positive cells” value [1] was 21.8 ± 6.78 and the “Number of goblet cells on 1 mm of epithelium” value [1] was 65.6 ± 6.03. For the same compound, the “Ratio of alcian positive cells … in %” value [1] was 35.8 ± 11.13%, the “Epithelial desquamation (observation)” value ([2]; in words) was “not observed” and the “Overall therapeutic effect / activity against rhinosinusitis” value ([2]; in words) was “moderate activity”. The Epithelial desquamation [2] was 0.0(0.0; 0.0)* score, the Mucous gland damage [2] was 0.0(0.0; 1.0) score and the “Leukocyte infiltrate of mucous membrane” value [2] was 1.0(1.0; 2.0) score. For the same compound, the “Mononuclear infiltrate” value [2] was 1.0 (1.0; 1.0) score, the “Inflammation degree in different zones: Olfactory region” value [2] was 0.5 and the “Inflammation degree in different zones: Respiratory region” value [2] was 1.0. The “Inflammation degree in different zones: Vestibule” value [2] was 0.0, the “Inflammation type … of goblet cells” value [2] was 1.0 and the “Inflammation type: acute catarrhal rhinosinusitis” value [2] was 1.0. For the same compound, the “Inflammation type: acute purulent rhinosinusitis” value [2] was 0.0 and the “Macroscopic” value [3] was “No external changes were observed”.
